Where two headings read alike, the source gives them in different places.
Key:
[1] = Screening of ionic liquids for dissolving microcrystalline cellulose; type: physicochemical
Escherichia coli = conditions: LB solid medium, 48 h
Excerpt: Therefore, a purpose of this example is to screen a concentration range of the ionic liquid contained in the medium.

[2] = No. 8: 10 g IL, 1 g microcrystalline cellulose, 90° C., co-heated
[3] = No. 11: 5 g IL, 3 g microcrystalline cellulose, 90° C., co-heated
[4] = No. 3: 5 g IL, 3 g microcrystalline cellulose, 90° C., co-heated

C=CCn1cc[n+](C)c1.[Cl-] [1-allyl-3-methylimidazolium chloride]
Conclusion (dissolution effect of microcrystalline cellulose) [1, 2]: desirable | Dissolution time [1, 2]: 40 min | Conclusion (dissolution effect of microcrystalline cellulose) ([1]; No. 9: 5 g IL, 1 g microcrystalline cellulose, IL heated to 100° C.): common | Dissolution time ([1]; No. 9: 5 g IL, 1 g microcrystalline cellulose, IL heated to 100° C., cellulose added): 20 min | Conclusion (dissolution effect of microcrystalline cellulose) ([1]; No. 10: 5 g IL, 2 g microcrystalline cellulose, 100° C., soaked in IL for 20 h, co-heated): common | Dissolution time ([1]; No. 10: 5 g IL, 2 g microcrystalline cellulose, 100° C., soaked in IL for 20 h, co-heated in water bath): 10 min | Conclusion (dissolution effect of microcrystalline cellulose) [1, 3]: has a poor | Dissolution time [1, 3]: 240 min

CCCCn1cc[n+](C)c1.[Cl-] [1-butyl-3-methylimidazolium chloride]
Ionic liquid concentration at which the growth of Escherichia coli is inhibited (Escherichia coli): not less than 3% | Growth state of strains (Escherichia coli; ionic solution concentration 1%): Normal | Growth state of strains (Escherichia coli; ionic solution concentration 3%): Slightly inhibited | Growth state of strains (Escherichia coli; ionic solution concentration 4%): Inhibited growth | Growth state of strains (Escherichia coli; ionic solution concentration 5%): Inhibited growth | Growth state of strains (Escherichia coli; ionic solution concentration 6%): No growth | Growth state of strains (Escherichia coli; ionic solution concentration 7%): No growth | Conclusion (dissolution effect) (Treatment 1: 10 g IL, 1 g microcrystalline cellulose, co-heated to 90° C., repeated): Poor | Conclusion (dissolution effect) (Treatment 2: 10 g IL, 1 g cellulose, IL heated to 90° C., heating to 90° C. repeated): Common | Conclusion (dissolution effect) (Treatment 3: 10 g IL, 1 g cellulose, IL heated to 90° C., heating to 100° C. repeated): Common | Conclusion (dissolution effect) (Treatment 4: 10 g IL, 1 g cellulose, IL heated to 90° C., heating to 110° C. repeated): Common | Conclusion (dissolution effect) (Treatment 5: 10 g IL, 1 g cellulose, IL heated to 90° C., heating to 120° C. repeated): Common | Conclusion (dissolution effect) (Treatment 6: 10 g IL, 1 g cellulose, 90° C., 120° C., heating to 180° C. repeated): Desirable | Conclusion (dissolution effect) (Treatment 7: 8 g IL, 1 g cellulose, 90° C., 120° C., heating to 180° C. repeated): Desirable | Conclusion (dissolution effect) (Treatment 8: 5 g IL, 1 g cellulose, 90° C., 180° C., heating to 180° C. repeated): Desirable | Conclusion (dissolution effect) (Treatment 9: 5 g IL, 1.5 g cellulose, 90° C., 120° C., heating to 180° C. repeated): Desirable | Conclusion (dissolution effect) (Treatment 10: 5 g IL, 2 g cellulose, 90° C., 120° C., heating to 180° C. repeated): Desirable | Conclusion (dissolution effect) (Treatment 11: 5 g IL, 2.5 g cellulose, 90° C., 120° C., heating to 180° C. repeated): Desirable | Conclusion (dissolution effect of microcrystalline cellulose) ([1]; No. 1: 10 g IL, 1 g microcrystalline cellulose, 90° C., co-heated): desirable | Dissolution time ([1]; No. 1: 10 g IL, 1 g microcrystalline cellulose, 90° C., co-heated, stirred 20 sec every 5 min): 40 min | Conclusion (dissolution effect of microcrystalline cellulose) ([1]; No. 2: 5 g IL, 3 g microcrystalline cellulose, 110° C., IL preheated to liquid state): desirable | Dissolution time ([1]; No. 2: 5 g IL, 3 g microcrystalline cellulose, 110° C., IL preheated to liquid state, mixed by stirring): 1 min | Conclusion (dissolution effect of microcrystalline cellulose) [1, 4]: common | Dissolution time [1, 4]: 240 min | Effect in pretreatment of cellulose ([1]; overall conclusion of Example 1): could well process the cellulose
